Assay results from US6737383B1, “Herbicidal oxadiazolidines” (priority 1999, dated 2004).

Key:
rape = assay: Test B pre/postemergence rape; format: in vivo, Brassica napus
In short: (§1)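 Herbicidal effect was estimated by eye on a ten-point control scale after plants spent twelve to sixteen days in a greenhouse following soil or foliar treatment. Foliar sprays targeted plants at one to four leaves; all doses were formulated in a non-phytotoxic solvent with surfactant.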

duck salad = assay: Test B flood test duck salad; format: in vivo, Heteranthera limosa
In short: (§2)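 Flood test on plants grown to the 2-leaf stage; treated plants kept in greenhouse twelve to sixteen days, then visually rated against controls on a 0 (no effect) to 10 (complete control) scale.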

velvetleaf = assay: Test B pre/postemergence velvetleaf; format: in vivo, Abutilon theophrasti
In short: as §1

bedstraw = assay: Test B pre/postemergence bedstraw; format: in vivo, Galium aparine
In short: as §1

giant foxtail = assay: Test B pre/postemergence giant foxtail; format: in vivo, Setaria faberii
In short: as §1

morningglory = assay: Test B pre/postemergence morningglory; format: in vivo, Ipomoea hederacea
In short: as §1

corn = assay: Test B pre/postemergence corn; format: in vivo, Zea mays
In short: as §1

pigweed = assay: Test B pre/postemergence pigweed; format: in vivo, Amaranthus retroflexus
In short: as §1

blackgrass = assay: Test B pre/postemergence blackgrass; format: in vivo, Alopecurus myosuroides
In short: as §1

sugar beet = assay: Test B pre/postemergence sugar beet; format: in vivo, Beta vulgaris
In short: as §1

soybean = assay: Test B pre/postemergence soybean; format: in vivo, Glycine max
In short: as §1

cocklebur = assay: Test B pre/postemergence cocklebur; format: in vivo, Xanthium strumarium
In short: as §1

purple nutsedge = assay: Test B pre/postemergence purple nutsedge; format: in vivo, Cyperus rotundus; settings: for Nutsedge plant response rating: Postemergence; for Plant response rating, Nutsedge: Preemergence
In short: as §1

surinam grass = assay: Test B pre/postemergence surinam grass; format: in vivo, Brachiaria decumbens
In short: as §1

bamyardgrass = assay: Test B flood test barnyardgrass; format: in vivo, Echinochloa crus-galli
In short: as §2

smallflower flatsedge = assay: Test B flood test smallflower flatsedge; format: in vivo, Cyperus difformis
In short: as §2

[1] = Postemergence, Rate 62 g/ha, scale 0 to 10, 0 is no effect, 10 is complete control
[2] = Postemergence, Rate 250 g/ha, scale 0 to 10, 0 no effect, 10 complete control
[3] = Preemergence, Rate 62 g/ha, scale 0 to 10, 0 is no effect, 10 is complete control
[4] = Preemergence, Rate 125 g/ha, scale 0 to 10 (0 no effect, 10 complete control)
[5] = Preemergence, Rate 250 g/ha, scale of 0 to 10 where 0 is no effect and 10 is complete control
[6] = Preemergence, Rate 500 g/ha, scale 0 (no effect) to 10 (complete control)
[7] = Rate 125 g/ha, Postemergence, scale 0 to 10, 0 no effect, 10 complete control
[8] = Rate 500 g/ha, Postemergence, scale 0 to 10, 0 no effect, 10 complete control
[9] = Rate 125 g/ha, Pre-emergence, flood test species, scale 0 to 10 where 0 is no effect and 10 is complete control
[10] = Rate 250 g/ha, headed Pre-emergence (flood test species), scale 0 to 10 (0 no effect, 10 complete control)
[11] = Rate 500 g/ha, headed Pre-emergence (flood test species), scale 0 to 10 (0 no effect, 10 complete control)
[12] = Rate 1000 g/ha, Pre-emergence (as headed), scale 0 to 10
[13] = Rate 2000 g/ha, Pre-emergence (as headed), scale 0 to 10

Cc1cccc(C)c1-n1c(=O)on(C(=O)N(c2ccc(Cl)cc2)C(C)C)c1=O [Compound 47]
Rape plant response rating (rape; [1]): 0 | Rape plant response rating (rape; [2]): 0 | Plant response rating, Rape (rape; [3]): 0 | Plant response rating, Rape (rape; [4]): 0 | Plant response rating, Rape (rape; [5]): 0 | Rape plant response rating (rape; [6]): 0 | Rape plant response rating (rape; [7]): 0 | Rape plant response rating (rape; [8]): 0 | Ducksalad plant response rating (duck salad; Rate 125 g/ha, Postemergence section (flood test species), scale 0 to 10, 0 no effect, 10 complete control): 0 | Ducksalad plant response rating (duck salad; [9]): 0 | Ducksalad plant response rating (duck salad; [10]): 0 | Plant response rating, Ducksalad (duck salad; [11]): 0 | Ducksalad plant response rating (duck salad; [12]): 3 | Ducksalad plant response rating (duck salad; [13]): 0 | Velvetleaf plant response rating (velvetleaf; [1]): 0 | Velvetleaf plant response rating (velvetleaf; [2]): 0 | Plant response rating, Velvetleaf (velvetleaf; [3]): 0 | Plant response rating, Velvetleaf (velvetleaf; [4]): 0 | Plant response rating, Velvetleaf (velvetleaf; [5]): 0 | Velvetleaf plant response rating (velvetleaf; [6]): 0 | Velvetleaf plant response rating (velvetleaf; [7]): 0 | Velvetleaf plant response rating (velvetleaf; [8]): 0 | Bedstraw plant response rating (bedstraw; [1]): 0 | Bedstraw plant response rating (bedstraw; [2]): 6 | Plant response rating, Bedstraw (bedstraw; [4]): 0 | Plant response rating, Bedstraw (bedstraw; [5]): 0 | Bedstraw plant response rating (bedstraw; [6]): 0 | Bedstraw plant response rating (bedstraw; [7]): 3 | Giant foxtail plant response rating (giant foxtail; [1]): 0 | Giant foxtail plant response rating (giant foxtail; [2]): 0 | Plant response rating, Giant foxtail (giant foxtail; [3]): 0 | Plant response rating, Giant foxtail (giant foxtail; [4]): 2 | Plant response rating, Giant foxtail (giant foxtail; [5]): 3 | Giant foxtail plant response rating (giant foxtail; [6]): 3 | Giant foxtail plant response rating (giant foxtail; [7]): 0 | Giant foxtail plant response rating (giant foxtail; [8]): 2 | Morningglory plant response rating (morningglory; [1]): 1 | Morningglory plant response rating (morningglory; [2]): 4 | Plant response rating, Morningglory (morningglory; [3]): 0 | Plant response rating, Morningglory (morningglory; [4]): 0 | Plant response rating, Morningglory (morningglory; [5]): 0 | Morningglory plant response rating (morningglory; [6]): 0 | Morningglory plant response rating (morningglory; [7]): 2 | Morningglory plant response rating (morningglory; [8]): 6 | Corn plant response rating (corn; [1]): 0 | Corn plant response rating (corn; [2]): 0 | Plant response rating, Corn (corn; [3]): 0 | Plant response rating, Corn (corn; [4]): 0 | Plant response rating, Corn (corn; [5]): 0 | Corn plant response rating (corn; [6]): 0 | Corn plant response rating (corn; [7]): 0 | Corn plant response rating (corn; [8]): 0 | Redroot pigweed plant response rating (pigweed; [1]): 0 | Redroot pigweed plant response rating (pigweed; [2]): 0 | Plant response rating, Redroot pigweed (pigweed; [3]): 0 | Plant response rating, Redroot pigweed (pigweed; [4]): 0 | Plant response rating, Redroot pigweed (pigweed; [5]): 0 | Redroot pigweed plant response rating (pigweed; [6]): 0 | Redroot pigweed plant response rating (pigweed; [7]): 0 | Redroot pigweed plant response rating (pigweed; [8]): 2 | Blackgrass plant response rating (blackgrass; [1]): 0 | Blackgrass plant response rating (blackgrass; [2]): 0 | Plant response rating, Blackgrass (blackgrass; [3]): 0 | Plant response rating, Blackgrass (blackgrass; [4]): 0 | Plant response rating, Blackgrass (blackgrass; [5]): 0 | Blackgrass plant response rating (blackgrass; [6]): 0 | Blackgrass plant response rating (blackgrass; [7]): 0 | Blackgrass plant response rating (blackgrass; [8]): 0 | Sugarbeets plant response rating (sugar beet; [1]): 0 | Sugarbeets plant response rating (sugar beet; [2]): 0 | Plant response rating, Sugarbeets (sugar beet; [3]): 0 | Plant response rating, Sugarbeets (sugar beet; [4]): 0 | Plant response rating, Sugarbeets (sugar beet; [5]): 0 | Sugarbeets plant response rating (sugar beet; [6]): 0 | Sugarbeets plant response rating (sugar beet; [7]): 0 | Sugarbeets plant response rating (sugar beet; [8]): 0 | Soybean plant response rating (soybean; [1]): 2 | Soybean plant response rating (soybean; [2]): 2 | Plant response rating, Soybean (soybean; [3]): 0 | Plant response rating, Soybean (soybean; [4]): 0 | Plant response rating, Soybean (soybean; [5]): 0 | Soybean plant response rating (soybean; [6]): 0 | Soybean plant response rating (soybean; [7]): 2 | Soybean plant response rating (soybean; [8]): 2 | Cocklebur plant response rating (cocklebur; [1]): 0 | Cocklebur plant response rating (cocklebur; [2]): 2 | Plant response rating, Cocklebur (cocklebur; [3]): 0 | Plant response rating, Cocklebur (cocklebur; [4]): 0 | Plant response rating, Cocklebur (cocklebur; [5]): 0 | Cocklebur plant response rating (cocklebur; [6]): 0 | Cocklebur plant response rating (cocklebur; [7]): 0 | Cocklebur plant response rating (cocklebur; [8]): 2 | Nutsedge plant response rating (purple nutsedge; Rate 62 g/ha, scale 0 to 10, 0 is no effect, 10 is complete control): 0 | Nutsedge plant response rating (purple nutsedge; Rate 250 g/ha, scale 0 to 10, 0 no effect, 10 complete control): 0 | Plant response rating, Nutsedge (purple nutsedge; Rate 125 g/ha, scale 0 to 10 (0 no effect, 10 complete control)): 0 | Plant response rating, Nutsedge (purple nutsedge; Rate 250 g/ha, scale of 0 to 10 where 0 is no effect and 10 is complete control): 0 | Nutsedge plant response rating (purple nutsedge; Rate 125 g/ha, scale 0 to 10, 0 no effect, 10 complete control): 0 | Nutsedge plant response rating (purple nutsedge; Rate 500 g/ha, scale 0 to 10, 0 no effect, 10 complete control): 0 | B. signalgrass plant response rating (surinam grass; [1]): 0 | B. signalgrass plant response rating (surinam grass; [2]): 0 | Plant response rating, B. signalgrass (surinam grass; [3]): 0 | Plant response rating, B. signalgrass (surinam grass; [4]): 0 | Plant response rating, B. signalgrass (surinam grass; [5]): 0 | B. signalgrass plant response rating (surinam grass; [6]): 0 | B. signalgrass plant response rating (surinam grass; [7]): 0 | B. signalgrass plant response rating (surinam grass; Rate 500 g/ha, Postemergence, scale of 0 to 10 where 0 is no effect and 10 is complete control): 0 | Barnyardgrass plant response rating (bamyardgrass; [9]): 0 | Barnyardgrass plant response rating (bamyardgrass; [10]): 0 | Plant response rating, Barnyardgrass (bamyardgrass; [11]): 1 | Barnyardgrass plant response rating (bamyardgrass; [12]): 6 | Barnyardgrass plant response rating (bamyardgrass; Rate 2000 g/ha, Pre-emergence (as headed), scale 0 to 10, 0 no effect, 10 complete control): 8 | S. Flatsedge plant response rating (smallflower flatsedge; Pre-emergence, Rate 1000 g/ha, scale 0 to 10 (0 no effect, 10 complete control)): 2 | S. Flatsedge plant response rating (smallflower flatsedge; [9]): 0 | S. Flatsedge plant response rating (smallflower flatsedge; [10]): 2 | Plant response rating, S. Flatsedge (smallflower flatsedge; [11]): 2 | S. Flatsedge plant response rating (smallflower flatsedge; [13]): 0
